The record followed here is US20100081690A1, “OXAZOLE DERIVATIVES AS POSITIVE ALLOSTERIC MODULATORS OF METABOTROPIC GLUTAMATE RECEPTORS” (ADDEX PHARMA SA, priority 2006, published 2010).

Bounds are passed on as bounds.

The assay addresses T1, mGluR5 (Rattus norvegicus, UniProt P31424).
T1 construct: positive allosteric modulators of mGluR5 receptors in native preparations; endogenous in cells; host or cells: primary cortical astrocytes from Sprague-Dawley rat embryos (E16-19)
The experiment in a line: mGluR5 assay on rat cultured cortical astrocytes (Ca2+ mobilization, FLIPR). In kind it is cell-based. The following applies: in the presence of 300 nM glutamate. The text has this: Under exposure to growth factors (basic fibroblast growth factor, epidermal growth factor), rat cultured astrocytes express group I-Gq coupled mGluR transcripts, namely mGluR5, but none of the splice variants of mGluR1, and as a consequence, a functional expression of mGluR5 receptors (Miller et al. (1995) J. Neurosci. 15:6103-9): The stimulation of mGluR5 receptors with selective agonist CHPG and the full blockade of the glutamate-induced phosphoinositide (PI) hydrolysis and subsequent intracellular calcium mobilization with specific antagonist as MPEP confirm the unique expression of mGluR5 receptors in this preparation. […]
After one day of incubation, cells were washed with assay buffer containing: 142 mM NaCl, 6 mM KCl, 1 mM Mg2SO4, 1 mM CaCl2, 20 mM HEPES, 1 g/L glucose, 0.125 mM sulfinpyrazone, pH 7.4. […] The plates were then transferred to a Fluorometric Imaging Plate Reader (FLIPR, Molecular Devices, Sunnyvale, Calif.) for the assessment of intracellular calcium flux. After monitoring the baseline fluorescence for 10 s, a solution containing […] of representative compound of the present invention diluted in Assay Buffer (15 μl of 4× dilutions) was added to the cell plate in the absence or in the presence of 300 nM of glutamate. […] In each experiment, fluorescence was then monitored as a function of time for 3 minutes and the data analyzed using Microsoft Excel and GraphPad Prism. […]

T1 sequence (P31424 21-1203): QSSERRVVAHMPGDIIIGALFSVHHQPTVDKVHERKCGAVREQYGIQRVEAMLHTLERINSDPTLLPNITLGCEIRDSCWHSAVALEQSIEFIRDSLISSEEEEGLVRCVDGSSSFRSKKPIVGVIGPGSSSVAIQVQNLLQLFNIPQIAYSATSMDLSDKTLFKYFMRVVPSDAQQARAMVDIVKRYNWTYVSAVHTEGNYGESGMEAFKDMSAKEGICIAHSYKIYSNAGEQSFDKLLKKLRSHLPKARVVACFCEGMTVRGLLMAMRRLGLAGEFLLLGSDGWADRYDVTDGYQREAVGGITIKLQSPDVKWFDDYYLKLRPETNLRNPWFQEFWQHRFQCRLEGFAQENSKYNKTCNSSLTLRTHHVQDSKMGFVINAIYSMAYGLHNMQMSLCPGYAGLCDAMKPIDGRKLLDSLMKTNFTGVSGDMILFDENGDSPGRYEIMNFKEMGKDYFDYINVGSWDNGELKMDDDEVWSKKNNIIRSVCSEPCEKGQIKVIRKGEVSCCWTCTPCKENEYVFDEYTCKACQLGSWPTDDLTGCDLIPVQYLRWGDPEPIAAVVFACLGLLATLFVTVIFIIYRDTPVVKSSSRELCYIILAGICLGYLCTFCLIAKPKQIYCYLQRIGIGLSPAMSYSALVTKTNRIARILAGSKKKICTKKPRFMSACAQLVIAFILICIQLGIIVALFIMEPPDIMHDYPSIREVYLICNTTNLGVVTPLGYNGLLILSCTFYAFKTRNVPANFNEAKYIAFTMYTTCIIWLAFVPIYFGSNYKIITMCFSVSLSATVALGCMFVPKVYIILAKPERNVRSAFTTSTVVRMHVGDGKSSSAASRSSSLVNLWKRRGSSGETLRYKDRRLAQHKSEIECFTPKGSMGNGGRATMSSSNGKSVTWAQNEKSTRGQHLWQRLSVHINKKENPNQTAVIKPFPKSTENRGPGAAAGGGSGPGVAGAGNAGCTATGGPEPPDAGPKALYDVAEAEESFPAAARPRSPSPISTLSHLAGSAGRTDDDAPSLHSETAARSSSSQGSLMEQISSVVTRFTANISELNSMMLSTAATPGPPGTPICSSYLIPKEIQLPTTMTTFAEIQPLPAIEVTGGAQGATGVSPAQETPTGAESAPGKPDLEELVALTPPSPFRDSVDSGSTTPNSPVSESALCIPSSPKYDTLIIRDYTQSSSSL

Usually EC50 stands for the concentration that produces a half-maximal response. Regarding `O=C(c1ccc(F)cc1)N1CCC[C@H](c2nc(-c3cc(F)c[nH]3)co2)C1` [Example 1, (4-Fluoro-phenyl)-{(S)-3-[4-(4-fluoro-1H-pyrrol-2-yl)-oxazol-2-yl]-piperidin-1-yl}-methanone], the half-maximal effective concentration (EC50) was less than 1000 nM.
